Reference: patent publication US20120288604A1, “Organic Compounds” (Givaudan S.A., priority 2009, published 2012)

Tests used:
[1] = Tsuzuki et al, J. of chemical and engineering data (1971), 16(1), 108-11; cited from earlier work
[2] = system: panel of 15 subjects all of whom were sweet sensitive; test: Sensory ranking to find the sucrose concentration iso-intense to aqueous para-ethoxy benzonitrile (R-index analysis); assay type: in vivo
Description: The test samples contained para-ethoxy benzonitrile in water. The control samples were aqueous solutions of sucrose at 0.5%, 1.0%, 1.5% and 2.0%. The sensory evaluations were conducted as follows. All samples were presented at ambient temperature in 15 ml aliquots at random to a panel of 15 subjects all of whom were sweet sensitive of varying sensitivity. After tasting each sample, panelists rinsed their mouths thoroughly with water at ambient temperature prior to tasting subsequent samples. The tastings were carried out in two replications in one session. Panelists were asked to rank the solutions whilst wearing nose plugs. They were asked to rank from least sweet to most sweet.
(§1) The data were subjected to an R-Index analysis. […] An R-index from 50% to the critical value means the sweetness enhancer sample has an equivalent sweetness to the compared sucrose sample.

[3] = system: panel of 15 subjects all of whom were sweet sensitive; test: Comparative sensory ranking of sucrose solutions against 7% sucrose + para-ethoxy benzonitrile (R-index analysis); assay type: in vivo
Description: The test samples (“Test”) contained 7% sucrose and 20 ppm of para-ethoxy benzonitrile in water. The test samples were compared with control samples containing 7, 8, 9, and 10% sucrose in water. The sensory evaluations were conducted as follows. All samples were presented at ambient temperature in 15 ml aliquots at random to a panel of 15 subjects all of whom were sweet sensitive of varying sensitivity. After tasting each sample, the mouth was rinsed thoroughly with water at ambient temperature prior to tasting the next sample. The tastings were carried out in two replications in one session. Panelists were asked to rank the solutions whilst wearing nose plugs. They were asked to rank from least sweet to most sweet.
as §1

CCOc1ccc(C#N)cc1 [ethoxy benzonitrile]
taste as described [1]: sweet or sweetish

CCOc1ccc(C#N)cc1 [para-ethoxy benzonitrile]
Significantly different (p < 0.05) ([2]; 10 ppm in water vs. 0.5% sucrose): No
R-index ([2]; 10 ppm in water vs. 0.5% sucrose, critical value 64.61%): 51%
iso sweet sucrose solution ([2]; 10 ppm solution in water): 0.5%
Significantly different (p < 0.05) ([2]; 20 ppm in water vs. 0.5% sucrose): Yes
R-index ([2]; 20 ppm in water vs. 0.5% sucrose, critical value 64.61%): 81%
Significantly different (p < 0.05) ([2]; 20 ppm in water vs. 1.0% sucrose): Yes
R-index ([2]; 20 ppm in water vs. 1.0% sucrose, critical value 35.39%): 30%
iso-sweet sucrose solution, by interpolation ([2]; 20 ppm solution in water): 0.75%
perceived sweetness relative to sucrose ([2]; 20 ppm solution vs. 0.5% sucrose): significantly sweeter
perceived sweetness relative to sucrose ([2]; 20 ppm solution vs. 1% sucrose): significantly less sweet
sweetness enhancement (additive or synergistic) ([3]; 20 ppm in 7% sucrose, Examples 1 and 2 taken together): synergistic effect
iso-sweet sucrose, by interpolation ([3]; Test (7% sucrose + 20 ppm in water)): 8.5%
Significantly different (p < 0.05) ([3]; Test (7% sucrose + 20 ppm in water) vs. 7% sucrose): Yes
R-index ([3]; Test (7% sucrose + 20 ppm in water) vs. 7% sucrose, critical value 64.61%): 95%
Significantly different (p < 0.05) ([3]; Test (7% sucrose + 20 ppm in water) vs. 8% sucrose): Yes
R-index ([3]; Test (7% sucrose + 20 ppm in water) vs. 8% sucrose, critical value 64.61%): 73%
Significantly different (p < 0.05) ([3]; Test (7% sucrose + 20 ppm in water) vs. 9% sucrose): Yes
R-index ([3]; Test (7% sucrose + 20 ppm in water) vs. 9% sucrose, critical value 35.39%): 28%
Significantly different (p < 0.05) ([3]; Test (7% sucrose + 20 ppm in water) vs. 10% sucrose): Yes
R-index ([3]; Test (7% sucrose + 20 ppm in water) vs. 10% sucrose, critical value 35.39%): 10%
iso-sweet sucrose expected were the effect merely additive ([3]; Test (7% sucrose + 20 ppm in water), from the data of Example 1): 7.75%
perceived sweetness relative to sucrose ([3]; Test (7% sucrose + 20 ppm) vs. 7 and 8% sucrose solutions): significantly sweeter
perceived sweetness relative to sucrose ([3]; Test (7% sucrose + 20 ppm) vs. 9% and 10% sucrose): less sweet
